How the values were obtained:
Type in all cases: in vivo
Details in all cases: 16 days after treatment
[1] = test system: morningglory (Ipomoea hederacea, IPOHE); assay: General herbicidal evaluation, preemergence
Text: (§1) Applications of methylidene mevalonate were made either to the foliage (postemergence) or soil (preemergence). Seeds of sunflower (Helianthus annus, HELAN), morningglory (Ipomoea hederacea, IPOHE) velvetleaf (Abutilon theophrasti, ABUTH), pigweed (Amaranthus spp., AMARE), barnyardgrass (Echinochloa crusgalli, ECHCG), giant foxtail (Setaria faberi, SETFA), wild oats (Avena fatua, AVEFA), and blackgrass (Alopecurus myosuroides, ALOMY) were planted in mineral soil (sandy clay loam, 51% sand, 26% silt, 23% clay, 2.8% O.M., pH 7.8) and Metro-mix (Bulk Sak, Inc., Malvern, Ark., USA) for preemergence and postemergence treatments, respectively. Pots receiving preemergence treatments were watered immediately following application. Prior to postemergence treatment, plants were grown in the greenhouse (16 h photoperiod, 27 C) and thinned to a density of 2 to 15 plants pot^−1, depending on species. At the time of postemergence applications, plants were 8-12 days old, 3 to 10 cm in height, and in the 1- to 3-true-leaf stage. Natural light in the greenhouse was supplemented with metal halide lights that provided an average photosynthetic photon flux of 500 μmol m^−2s^−1.
(§2) A sample of sodium methylidene mevalonate was dissolved in 4 mL of distilled water followed by 10 mL of formulation stock “B” (200 mL isopropanol, 20 mL crop oil concentrate, 0.4 g Triton X-155 [Sigma Chemical Co., St. Louis, Mo. 62718], and 78 mL water). This was followed by three 1:1 (v/v) serial dilutions using formulation stock “C” (100 mL isopropanol, 10 mL crop oil concentrate, 0.2 g Triton X-155, 390 mL water, 485 mL acetone and 15 mL DMSO).
(§3) Treatments were made at four different doses (4000, 2000, 1000, and 500 g ha^−1). For preemergence treatments, 1.75 mL of spray solution were applied to the soil surface in each pot using a glass Cornwall syringe fitted with a Teejet SS8001E flat-fan nozzle (Spraying Systems Co., Wheaton, Ill. 60189-7900). For postemergence applications, the foliage of the test plants was sprayed using a DeVilbiss atomizer (DeVilbiss Health Car, Inc., Somerset, Pa. 15501) driven by compressed air at a pressure of 22 kPa. Untreated controls were included.
(§4) Pots were placed in the greenhouse following compound application. Pots from postemergence and preemergence were sub-irrigated and top-watered, respectively, as needed for the duration of the test. Visual injury ratings were taken 9 and 16 days after treatment for postemergence and preemergence applications, respectively, on a 0 to 100 scale where 0 represents no injury and 100 represents complete necrosis.

[2] = test system: giant foxtail (Setaria faberi, SETFA); assay: General herbicidal evaluation, preemergence
Text: as §1, §2, §3, §4

[3] = test system: blackgrass (Alopecurus myosuroides, ALOMY); assay: General herbicidal evaluation, preemergence
Text: as §1, §2, §3, §4

[4] = test system: pigweed (Amaranthus spp., AMARE); assay: General herbicidal evaluation, preemergence
Text: as §1, §2, §3, §4

[5] = test system: sunflower (Helianthus annus, HELAN); assay: General herbicidal evaluation, preemergence
Text: as §1, §2, §3, §4

[6] = test system: wild oats (Avena fatua, AVEFA); assay: General herbicidal evaluation, preemergence
Text: as §1, §2, §3, §4

[7] = test system: velvetleaf (Abutilon theophrasti, ABUTH); assay: General herbicidal evaluation, preemergence
Text: as §1, §2, §3, §4

[8] = test system: barnyardgrass (Echinochloa crusgalli, ECHCG); assay: General herbicidal evaluation, preemergence
Text: as §1, §2, §3, §4

[9] = test system: morningglory (Ipomoea hederacea, IPOHE); assay: General herbicidal evaluation, postemergence
Text: as §1, §2, §3
(§5) Pots were placed in the greenhouse following compound application. Pots from postemergence and preemergence were sub-irrigated and top-watered, respectively, as needed for the duration of the test. […]

[10] = test system: giant foxtail (Setaria faberi, SETFA); assay: General herbicidal evaluation, postemergence
Text: as §1, §2, §3, §5

[11] = test system: blackgrass (Alopecurus myosuroides, ALOMY); assay: General herbicidal evaluation, postemergence
Text: as §1, §2, §3, §5

[12] = test system: pigweed (Amaranthus spp., AMARE); assay: General herbicidal evaluation, postemergence
Text: as §1, §2, §3, §5

[13] = test system: sunflower (Helianthus annus, HELAN); assay: General herbicidal evaluation, postemergence
Text: as §1, §2, §3, §5

[14] = test system: wild oats (Avena fatua, AVEFA); assay: General herbicidal evaluation, postemergence
Text: as §1, §2, §3, §5

[15] = test system: barnyardgrass (Echinochloa crusgalli, ECHCG); assay: General herbicidal evaluation, postemergence
Text: as §1, §2, §3, §5

Measured: Visual Injury (%)

C=C(CO)C(C)(O)CC(=O)O (stereo not drawn) [methylidene mevalonate, 3-hydroxy-4-(hydroxymethyl)-3-methylpent-4-enoic acid]
65%: [9]; 2.0 kg ha^−1, IPOHE
50%: [10]; 1.0 kg ha^−1, SETFA | [10]; 2.0 kg ha^−1, SETFA | [12]; 1.0 kg ha^−1, AMARE | [12]; 4.0 kg ha^−1, AMARE
30%: [2]; 4.0 kg ha^−1, SETFA | [3]; 4.0 kg ha^−1, ALOMY | [4]; 2.0 kg ha^−1, AMARE | [5]; 1.0 kg ha^−1, HELAN | [5]; 2.0 kg ha^−1, HELAN | [7]; 4.0 kg ha^−1, ABUTH | [8]; 4.0 kg ha^−1, ECHCG | [11]; 0.5 kg ha^−1, ALOMY | [11]; 1.0 kg ha^−1, ALOMY | [12]; 0.5 kg ha^−1, AMARE | [13]; 0.5 kg ha^−1, HELAN
90%: [15]; 4.0 kg ha^−1, ECHCG
0%: [1]; 0.5 kg ha^−1, IPOHE | [1]; 1.0 kg ha^−1, IPOHE | [1]; 2.0 kg ha^−1, IPOHE | [2]; 0.5 kg ha^−1, SETFA | [2]; 1.0 kg ha^−1, SETFA | [3]; 0.5 kg ha^−1, ALOMY | [3]; 1.0 kg ha^−1, ALOMY | [4]; 0.5 kg ha^−1, AMARE | [4]; 1.0 kg ha^−1, AMARE | [6]; 0.5 kg ha^−1, AVEFA | [6]; 1.0 kg ha^−1, AVEFA | [6]; 2.0 kg ha^−1, AVEFA | [7]; 0.5 kg ha^−1, ABUTH | [7]; 1.0 kg ha^−1, ABUTH | [8]; 0.5 kg ha^−1, ECHCG | [8]; 1.0 kg ha^−1, ECHCG
70%: [10]; 4.0 kg ha^−1, SETFA | [13]; 4.0 kg ha^−1, HELAN | [15]; 1.0 kg ha^−1, ECHCG | [15]; 2.0 kg ha^−1, ECHCG
60%: [5]; 4.0 kg ha^−1, HELAN | [9]; 0.5 kg ha^−1, IPOHE | [9]; 1.0 kg ha^−1, IPOHE | [11]; 2.0 kg ha^−1, ALOMY | [11]; 4.0 kg ha^−1, ALOMY | [13]; 2.0 kg ha^−1, HELAN | [14]; 1.0 kg ha^−1, AVEFA | [14]; 2.0 kg ha^−1, AVEFA | [15]; 0.5 kg ha^−1, ECHCG
75%: [9]; 4.0 kg ha^−1, IPOHE
20%: [1]; 4.0 kg ha^−1, IPOHE | [2]; 2.0 kg ha^−1, SETFA | [3]; 2.0 kg ha^−1, ALOMY | [5]; 0.5 kg ha^−1, HELAN | [7]; 2.0 kg ha^−1, ABUTH | [8]; 2.0 kg ha^−1, ECHCG
10%: [6]; 4.0 kg ha^−1, AVEFA
40%: [4]; 4.0 kg ha^−1, AMARE | [10]; 0.5 kg ha^−1, SETFA | [12]; 2.0 kg ha^−1, AMARE | [13]; 1.0 kg ha^−1, HELAN | [14]; 0.5 kg ha^−1, AVEFA
85%: [14]; 4.0 kg ha^−1, AVEFA

— patent US7393812B2, “Methylidene mevalonates and their use as herbicides” (Dow AgroSciences LLC, priority 2004, dated 2008)
